{"source": "ChEMBL document CHEMBL3244053", "about": "“Structural modification study of bis(substituted aminoalkylamino)anthraquinones. An evaluation of the relationship of the [2-[(2-hydroxyethyl)amino]ethyl]amino side chain with antineoplastic activity” (1979)", "key": {"B16 [1]": {"system": "B16", "test": "Antineoplastic activity against mouse B16 cells allografted in BDF1 mouse assessed as survival at 0.25 mg/kg qd for 9 days", "type": "functional, organism-based", "design": "dose 0.25 mg/kg"}, "Colon 26 [2]": {"system": "Colon 26", "test": "Antineoplastic activity against mouse Colon 26 cells allografted in CDF1 mouse assessed as survival at 0.39 mg/kg qd for 9 days", "type": "functional, organism-based", "design": "dose 0.39 mg/kg"}, "Colon 26 [3]": {"system": "Colon 26", "test": "Antineoplastic activity against mouse Colon 26 cells allografted in CDF1 mouse at 1.08 mg/kg qd for 9 days relative to control", "type": "functional"}, "L1210 [4]": {"system": "L1210", "test": "Antineoplastic activity against mouse L1210 cells allografted in CDF1 mouse assessed as survival at 4 mg/kg qd for 9 days", "type": "functional, organism-based", "design": "dose 4 mg/kg"}, "B16 [5]": {"system": "B16", "test": "Antineoplastic activity against mouse B16 cells allografted in BDF1 mouse at 1 mg/kg qd for 9 days relative to control", "type": "functional"}, "L1210 [6]": {"system": "L1210", "test": "Antineoplastic activity against mouse L1210 cells allografted in CDF1 mouse at 4 mg/kg qd for 9 days relative to control", "type": "functional"}, "Colon 26 [7]": {"system": "Colon 26", "test": "Antineoplastic activity against mouse Colon 26 cells allografted in CDF1 mouse assessed as survival at 0.69 mg/kg qd for 9 days", "type": "functional, organism-based", "design": "dose 0.69 mg/kg"}, "P388 [8]": {"system": "P388", "test": "Antineoplastic activity against mouse P388 cells allografted in CDF1 mouse assessed as survival at 0.25 mg/kg qd for 9 days", "type": "functional, organism-based", "design": "dose 0.25 mg/kg"}, "L1210 [9]": {"system": "L1210", "test": "Antineoplastic activity against mouse L1210 cells allografted in CDF1 mouse at 10.8 mg/kg qd for 9 days relative to control", "type": "functional"}, "L1210 [10]": {"system": "L1210", "test": "Antineoplastic activity against mouse L1210 cells allografted in CDF1 mouse at 1 mg/kg qd for 9 days relative to control", "type": "functional"}, "B16 [11]": {"system": "B16", "test": "Antineoplastic activity against mouse B16 cells allografted in BDF1 mouse assessed as survival at 1 mg/kg qd for 9 days", "type": "functional, organism-based", "design": "dose 1 mg/kg"}, "L1210 [12]": {"system": "L1210", "test": "Antineoplastic activity against mouse L1210 cells allografted in CDF1 mouse assessed as survival at 1 mg/kg qd for 9 days", "type": "functional, organism-based", "design": "dose 1 mg/kg"}, "B16 [13]": {"system": "B16", "test": "Antineoplastic activity against mouse B16 cells allografted in BDF1 mouse at 0.5 mg/kg qd for 9 days relative to control", "type": "functional"}, "P388 [14]": {"system": "P388", "test": "Antineoplastic activity against mouse P388 cells allografted in CDF1 mouse assessed as survival at 1 mg/kg qd for 9 days", "type": "functional, organism-based", "design": "dose 1 mg/kg"}, "P388 [15]": {"system": "P388", "test": "Antineoplastic activity against mouse P388 cells allografted in CDF1 mouse at 0.12 mg/kg qd for 9 days relative to control", "type": "functional"}, "Colon 26 [16]": {"system": "Colon 26", "test": "Antineoplastic activity against mouse Colon 26 cells allografted in CDF1 mouse at 0.69 mg/kg qd for 9 days relative to control", "type": "functional"}, "B16 [17]": {"system": "B16", "test": "Antineoplastic activity against mouse B16 cells allografted in BDF1 mouse at 2 mg/kg qd for 9 days relative to control", "type": "functional"}, "P388 [18]": {"system": "P388", "test": "Antineoplastic activity against mouse P388 cells allografted in CDF1 mouse at 2 mg/kg qd for 9 days relative to control", "type": "functional"}, "P388 [19]": {"system": "P388", "test": "Antineoplastic activity against mouse P388 cells allografted in CDF1 mouse assessed as survival at 2 mg/kg qd for 9 days", "type": "functional, organism-based", "design": "dose 2 mg/kg"}, "B16 [20]": {"system": "B16", "test": "Antineoplastic activity against mouse B16 cells allografted in BDF1 mouse assessed as survival at 2 mg/kg qd for 9 days", "type": "functional, organism-based", "design": "dose 2 mg/kg"}, "P388 [21]": {"system": "P388", "test": "Antineoplastic activity against mouse P388 cells allografted in CDF1 mouse assessed as survival at 0.06 mg/kg qd for 9 days", "type": "functional, organism-based", "design": "dose 0.06 mg/kg"}, "B16 [22]": {"system": "B16", "test": "Antineoplastic activity against mouse B16 cells allografted in BDF1 mouse assessed as survival at 0.5 mg/kg qd for 9 days", "type": "functional, organism-based", "design": "dose 0.5 mg/kg"}, "L1210 [23]": {"system": "L1210", "test": "Antineoplastic activity against mouse L1210 cells allografted in CDF1 mouse assessed as survival at 2 mg/kg qd for 9 days", "type": "functional, organism-based", "design": "dose 2 mg/kg"}, "L1210 [24]": {"system": "L1210", "test": "Antineoplastic activity against mouse L1210 cells allografted in CDF1 mouse at 2 mg/kg qd for 9 days relative to control", "type": "functional"}, "B16 [25]": {"system": "B16", "test": "Antineoplastic activity against mouse B16 cells allografted in BDF1 mouse at 0.25 mg/kg qd for 9 days relative to control", "type": "functional"}, "P388 [26]": {"system": "P388", "test": "Antineoplastic activity against mouse P388 cells allografted in CDF1 mouse at 0.25 mg/kg qd for 9 days relative to control", "type": "functional"}, "L1210 [27]": {"system": "L1210", "test": "Antineoplastic activity against mouse L1210 cells allografted in CDF1 mouse assessed as survival at 10.8 mg/kg qd for 9 days", "type": "functional, organism-based", "design": "dose 10.8 mg/kg"}, "L1210 [28]": {"system": "L1210", "test": "Antineoplastic activity against mouse L1210 cells allografted in CDF1 mouse at 18 mg/kg qd for 9 days relative to control", "type": "functional"}, "P388 [29]": {"system": "P388", "test": "Antineoplastic activity against mouse P388 cells allografted in CDF1 mouse assessed as survival at 0.12 mg/kg qd for 9 days", "type": "functional, organism-based", "design": "dose 0.12 mg/kg"}, "L1210 [30]": {"system": "L1210", "test": "Antineoplastic activity against mouse L1210 cells allografted in CDF1 mouse assessed as survival at 18 mg/kg qd for 9 days", "type": "functional, organism-based", "design": "dose 18 mg/kg"}, "Colon 26 [31]": {"system": "Colon 26", "test": "Antineoplastic activity against mouse Colon 26 cells allografted in CDF1 mouse assessed as survival at 1.08 mg/kg qd for 9 days", "type": "functional, organism-based", "design": "dose 1.08 mg/kg"}, "Colon 26 [32]": {"system": "Colon 26", "test": "Antineoplastic activity against mouse Colon 26 cells allografted in CDF1 mouse at 0.39 mg/kg qd for 9 days relative to control", "type": "functional"}, "P388 [33]": {"system": "P388", "test": "Antineoplastic activity against mouse P388 cells allografted in CDF1 mouse at 0.06 mg/kg qd for 9 days relative to control", "type": "functional"}, "P388 [34]": {"system": "P388", "test": "Antineoplastic activity against mouse P388 cells allografted in CDF1 mouse at 0.5 mg/kg qd for 9 days relative to control", "type": "functional"}, "P388 [35]": {"system": "P388", "test": "Antineoplastic activity against mouse P388 cells allografted in CDF1 mouse at 1 mg/kg qd for 9 days relative to control", "type": "functional"}, "P388 [36]": {"system": "P388", "test": "Antineoplastic activity against mouse P388 cells allografted in CDF1 mouse assessed as survival at 0.5 mg/kg qd for 9 days", "type": "functional, organism-based", "design": "dose 0.5 mg/kg"}}, "note": "Active and inactive are the calls of the source. No cut-off for these calls is given here.", "data": [{"smiles": "O=C1c2c(O)ccc(O)c2C(=O)c2c(NCCNCCO)ccc(NCCNCCO)c21", "note": "[MITOXANTRONE]", "values": [{"measurement": "Activity", "setting": "B16 [1]", "value": "Active"}, {"measurement": "Activity", "setting": "Colon 26 [2]", "value": "Active"}, {"measurement": "T/C", "setting": "Colon 26 [3]", "value": 353, "unit": "%"}, {"measurement": "Activity", "setting": "L1210 [4]", "value": "Active"}, {"measurement": "T/C", "setting": "B16 [5]", "value": 342, "unit": "%"}, {"measurement": "T/C", "setting": "L1210 [6]", "value": 256, "unit": "%"}, {"measurement": "Activity", "setting": "Colon 26 [7]", "value": "Active"}, {"measurement": "Activity", "setting": "P388 [8]", "value": "Active"}, {"measurement": "T/C", "setting": "L1210 [9]", "value": 261, "unit": "%"}, {"measurement": "T/C", "setting": "L1210 [10]", "value": 163, "unit": "%"}, {"measurement": "Activity", "setting": "B16 [11]", "value": "Active"}, {"measurement": "Activity", "setting": "L1210 [12]", "value": "Active"}, {"measurement": "T/C", "setting": "B16 [13]", "value": 299, "unit": "%"}, {"measurement": "Activity", "setting": "P388 [14]", "value": "Active"}, {"measurement": "T/C", "setting": "P388 [15]", "value": 210, "unit": "%"}, {"measurement": "T/C", "setting": "Colon 26 [16]", "value": 305, "unit": "%"}, {"measurement": "T/C", "setting": "B16 [17]", "value": 231, "unit": "%"}, {"measurement": "T/C", "setting": "P388 [18]", "value": 230, "unit": "%"}, {"measurement": "Activity", "setting": "P388 [19]", "value": "Active"}, {"measurement": "Activity", "setting": "B16 [20]", "value": "Active"}, {"measurement": "Activity", "setting": "P388 [21]", "value": "Active"}, {"measurement": "Activity", "setting": "B16 [22]", "value": "Active"}, {"measurement": "Activity", "setting": "L1210 [23]", "value": "Active"}, {"measurement": "T/C", "setting": "L1210 [24]", "value": 198, "unit": "%"}, {"measurement": "T/C", "setting": "B16 [25]", "value": 186, "unit": "%"}, {"measurement": "T/C", "setting": "P388 [26]", "value": 224, "unit": "%"}, {"measurement": "Activity", "setting": "L1210 [27]", "value": "Active"}, {"measurement": "T/C", "setting": "L1210 [28]", "value": 308, "unit": "%"}, {"measurement": "Activity", "setting": "P388 [29]", "value": "Active"}, {"measurement": "Activity", "setting": "L1210 [30]", "value": "Active"}, {"measurement": "Activity", "setting": "Colon 26 [31]", "value": "Active"}, {"measurement": "T/C", "setting": "Colon 26 [32]", "value": 259, "unit": "%"}, {"measurement": "T/C", "setting": "P388 [33]", "value": 192, "unit": "%"}, {"measurement": "T/C", "setting": "P388 [34]", "value": 305, "unit": "%"}, {"measurement": "T/C", "setting": "P388 [35]", "value": 381, "unit": "%"}, {"measurement": "Activity", "setting": "P388 [36]", "value": "Active"}]}]}
